According to paper PMC5234683 (Psychopharmacology, 2014):
Where two headings read alike, the source gives them in different places.

Assays:
5-HT1E = conditions: read-out: Ki (nM) 5-HT1E; PDSP database; ref PDSP http://pdsp.med.unc.edu/; cited from earlier work
KOR = conditions: read-out: Ki (nM) KOR; PDSP database; ref PDSP http://pdsp.med.unc.edu/; cited from earlier work
D1R [1] = biological target: T1, D1R (Homo sapiens, UniProt P21728); test: Radioligand competition binding, [3H]-SCH23390, HEK293 membranes; conditions: competition with 0.5 nM [3H]-SCH23390; single site; n=3
[2] = ref Sun et al. (2009); cited from earlier work
5-HT2B = conditions: read-out: Ki (nM) 5-HT2B; PDSP database; ref PDSP http://pdsp.med.unc.edu/; cited from earlier work
5-HT6 = conditions: read-out: Ki (nM) 5-HT6; PDSP database; ref PDSP http://pdsp.med.unc.edu/; cited from earlier work
D4R [3] = biological target: T2, D4R (Homo sapiens, UniProt P21917); test: DiscoveRx PathHunter β-arrestin-2 recruitment assay, CHO-K1 cells; type: cell-based; conditions: agonist mode; concentrations up to 100 μM
Beta2 = conditions: read-out: Ki (nM) Beta2; PDSP database; ref PDSP http://pdsp.med.unc.edu/; cited from earlier work
DAT = conditions: read-out: Ki (nM) DAT; PDSP database; ref PDSP http://pdsp.med.unc.edu/; cited from earlier work
5-HT2A = conditions: read-out: Ki (nM) 5-HT2A; PDSP database; ref PDSP http://pdsp.med.unc.edu/; cited from earlier work
H4 = conditions: read-out: Ki (nM) H4; PDSP database; ref PDSP http://pdsp.med.unc.edu/; cited from earlier work
Sigma-2 = conditions: read-out: Ki (nM) Sigma-2; PDSP database; ref PDSP http://pdsp.med.unc.edu/; cited from earlier work
GABA-A = conditions: read-out: Ki (nM) GABA-A; PDSP database; ref PDSP http://pdsp.med.unc.edu/; cited from earlier work
5-HT7 = conditions: read-out: Ki (nM) 5-HT7; PDSP database; ref PDSP http://pdsp.med.unc.edu/; cited from earlier work
SERT = conditions: read-out: Ki (nM) SERT; PDSP database; ref PDSP http://pdsp.med.unc.edu/; cited from earlier work
D3R [4] = biological target: T3, D3R (Homo sapiens, UniProt P35462); test: DiscoveRx PathHunter β-arrestin-2 recruitment assay, CHO-K1 cells; type: cell-based; conditions: agonist mode; concentrations up to 100 μM
D2R [5] = biological target: T4, D2R (Homo sapiens, UniProt P14416); type: cell-based; conditions: agonist mode; 100 μM forskolin
Alpha1A = conditions: read-out: Ki (nM) Alpha1A; PDSP database; ref PDSP http://pdsp.med.unc.edu/; cited from earlier work
D2R [6] = biological target: T4, D2R; test: DiscoveRx PathHunter β-arrestin-2 recruitment assay, CHO-K1 cells; type: cell-based; conditions: agonist mode; concentrations up to 100 μM
Beta1 = conditions: read-out: Ki (nM) Beta1; PDSP database; ref PDSP http://pdsp.med.unc.edu/; cited from earlier work
D1R [7] = biological target: T1, D1R; conditions: agonist mode; tested up to 0.1 mM
H2 = conditions: read-out: Ki (nM) H2; PDSP database; ref PDSP http://pdsp.med.unc.edu/; cited from earlier work
D5 = conditions: read-out: Ki (nM) D5; PDSP database; ref PDSP http://pdsp.med.unc.edu/; cited from earlier work
D1R [8] = biological target: T1, D1R; test: HTRF cAMP assay; type: cell-based; conditions: agonist mode; Supplemental Fig. 1
5-HT2C = conditions: read-out: Ki (nM) 5-HT2C; PDSP database; ref PDSP http://pdsp.med.unc.edu/; cited from earlier work
M5 = conditions: read-out: Ki (nM) M5; PDSP database; ref PDSP http://pdsp.med.unc.edu/; cited from earlier work
D2 = conditions: read-out: Ki (nM) D2; PDSP database; ref PDSP http://pdsp.med.unc.edu/; cited from earlier work
Alpha2B = conditions: read-out: Ki (nM) Alpha2B; PDSP database; ref PDSP http://pdsp.med.unc.edu/; cited from earlier work
CB2 = conditions: read-out: Ki (nM) CB2; PDSP database; ref PDSP http://pdsp.med.unc.edu/; cited from earlier work
D5R [9] = biological target: T5, D5R (Homo sapiens, UniProt P21918); test: DiscoveRx HitHunter cAMP accumulation assay, HEK293 cells; type: cell-based; conditions: agonist mode
CB1 = conditions: read-out: Ki (nM) CB1; PDSP database; ref PDSP http://pdsp.med.unc.edu/; cited from earlier work
NET = conditions: read-out: Ki (nM) NET; PDSP database; ref PDSP http://pdsp.med.unc.edu/; cited from earlier work
[10] = biological target: D1-like receptors in bovine striatal membranes (Bos taurus, UniProt Q95136); test: Bovine striatal radioligand binding assay, [3H]-SCH23390; conditions: read-out: Ki, one-site fit, 0.5 nM [3H]-SCH23390
D3 = conditions: read-out: Ki (nM) D3; PDSP database; ref PDSP http://pdsp.med.unc.edu/; cited from earlier work
5-HT1A = conditions: read-out: Ki (nM) 5-HT1A; PDSP database; ref PDSP http://pdsp.med.unc.edu/; cited from earlier work
D2R [11] = biological target: T4, D2R; test: Radioligand competition binding, [3H]-methylspiperone, HEK293 membranes; conditions: competition with 0.5 nM [3H]-methylspiperone; n=3
D3R [12] = biological target: T3, D3R; test: as above; conditions: competition with 0.5 nM [3H]-methylspiperone; n=3
Alpha2A = conditions: read-out: Ki (nM) Alpha2A; PDSP database; ref PDSP http://pdsp.med.unc.edu/; cited from earlier work
Alpha1B = conditions: read-out: Ki (nM) Alpha1B; PDSP database; ref PDSP http://pdsp.med.unc.edu/; cited from earlier work
5-HT5 = conditions: read-out: Ki (nM) 5-HT5; PDSP database; ref PDSP http://pdsp.med.unc.edu/; cited from earlier work
Sigma-1 = conditions: read-out: Ki (nM) Sigma-1; PDSP database; ref PDSP http://pdsp.med.unc.edu/; cited from earlier work
M2 = conditions: read-out: Ki (nM) M2; PDSP database; ref PDSP http://pdsp.med.unc.edu/; cited from earlier work
H3 = conditions: read-out: Ki (nM) H3; PDSP database; ref PDSP http://pdsp.med.unc.edu/; cited from earlier work
Alpha2C = conditions: read-out: Ki (nM) Alpha2C; PDSP database; ref PDSP http://pdsp.med.unc.edu/; cited from earlier work
5-HT1B = conditions: read-out: Ki (nM) 5-HT1B; PDSP database; ref PDSP http://pdsp.med.unc.edu/; cited from earlier work
H1 = conditions: read-out: Ki (nM) H1; PDSP database; ref PDSP http://pdsp.med.unc.edu/; cited from earlier work
D4R [13] = biological target: T2, D4R; test: Radioligand competition binding, [3H]-methylspiperone, CHO membranes; conditions: competition with 0.5 nM [3H]-methylspiperone; n=3
D1R [14] = biological target: T1, D1R; test: DiscoveRx PathHunter β-arrestin-2 recruitment assay, CHO-K1 cells; type: cell-based; conditions: agonist mode; concentrations up to 100 μM
D1 = conditions: read-out: Ki (nM) D1; PDSP database; ref PDSP http://pdsp.med.unc.edu/; cited from earlier work
5-HT1A receptor = conditions: ref Gao et al. 2011; Guo et al. 2009; cited from earlier work
DOR = conditions: read-out: Ki (nM) DOR; PDSP database; ref PDSP http://pdsp.med.unc.edu/; cited from earlier work
D1R–D2R heteromer = D1R–D2R heteromer (Homo sapiens, UniProt P14416+P21728); test: D1R–D2R-mediated calcium mobilization assay, co-transfected HEK293T cells; type: cell-based
5-HT1D = conditions: read-out: Ki (nM) 5-HT1D; PDSP database; ref PDSP http://pdsp.med.unc.edu/; cited from earlier work
5-HT3 = conditions: read-out: Ki (nM) 5-HT3; PDSP database; ref PDSP http://pdsp.med.unc.edu/; cited from earlier work
D4 = conditions: read-out: Ki (nM) D4; PDSP database; ref PDSP http://pdsp.med.unc.edu/; cited from earlier work
D5R [15] = biological target: T5, D5R; test: DiscoveRx PathHunter β-arrestin-2 recruitment assay, CHO-K1 cells; type: cell-based; conditions: agonist mode; concentrations up to 100 μM
MOR = conditions: read-out: Ki (nM) MOR; PDSP database; ref PDSP http://pdsp.med.unc.edu/; cited from earlier work

In the case of `COc1cc2c(cc1O)[C@@H]1Cc3ccc(O)c(OC)c3CN1CC2` [(−)-stepholidine, (−)-Stepholidine], the Ki (5-HT1E) is given as > 10000 nM, the Ki (KOR) is given as > 10000 nM and the Ki (D1R [1]) is given as 0.0051 ± 0.0023 µM. The metabolism after administration [2] was “rapidly metabolized within minutes of administration”, the Ki (5-HT2B) was 226 nM and the Ki (5-HT6) was > 10000 nM. For the same compound, the “agonist activity, β-arrestin-2 recruitment” value (D4R [3]) was “failed to produce any measurable recruitment of β-arrestin-2”, the Ki (Beta2) was > 10000 nM and the Ki (DAT) was > 10000 nM. For the same compound, the Ki (5-HT2A) was > 10000 nM, the Ki (H4) was > 10000 nM and the Ki (Sigma-2) was 53.4 nM. For the same compound, the Ki (GABA-A) was > 10000 nM, the Ki (5-HT7) was > 10000 nM and the Ki (SERT) was > 10000 nM. The “agonist activity, β-arrestin-2 recruitment” value (D3R [4]) was “failed to produce any measurable recruitment of β-arrestin-2”, the “agonist activity, inhibition of forskolin-stimulated cAMP accumulation” value (D2R [5]) was “has no effect on inhibiting cAMP accumulation” and the Ki (Alpha1A) was > 10000 nM. The “agonist activity, β-arrestin-2 recruitment” value (D2R [6]) was “failed to produce any measurable recruitment of β-arrestin-2”, the Ki (Beta1) was > 10000 nM and the “agonist activity, cAMP accumulation” value (D1R [7]) was “has no effect on cAMP accumulation”. For the same compound, the Ki (H2) was > 10000 nM, the Ki (D5) was 4.4 nM and the “agonist activity, cAMP accumulation (HTRF)” value (D1R [8]) was “did not stimulate D1R-mediated cAMP accumulation”. For the same compound, the Ki (5-HT2C) was > 10000 nM, the Ki (M5) was > 10000 nM and the Ki (D2) was 974 nM. For the same compound, the Ki (Alpha2B) was 6880 nM, the Ki (CB2) was > 10000 nM and the “agonist activity, cAMP accumulation” value (D5R [9]) was “failed to produce any measurable cAMP accumulation”. For the same compound, the Ki (CB1) was > 10000 nM, the Ki (NET) was > 10000 nM and the Ki ([10]; control, absence of GTPγS) was 0.016 ± 0.0024 µM. The Ki ([10]; presence of 1 mM GTPγS) was 0.0192 ± 0.0044 µM, the Ki (D3) was 30.1 nM and the Ki (5-HT1A) was 143 nM. For the same compound, the Ki (D2R [11]) was 0.0116 ± 0.0042 µM, the Ki (D3R [12]) was 0.0234 ± 0.0087 µM and the Ki (Alpha2A) was > 10000 nM. The Ki (Alpha1B) was > 10000 nM, the Ki (5-HT5) was > 10000 nM and the Ki (Sigma-1) was 1600 nM. For the same compound, the Ki (M2) was > 10000 nM, the Ki (H3) was > 10000 nM and the Ki (Alpha2C) was 214 nM. For the same compound, the Ki (5-HT1B) was 6980 nM, the Ki (H1) was > 10000 nM and the Ki (D4R [13]) was 1.45 µM. The “agonist activity, β-arrestin-2 recruitment” value (D1R [14]) was “failed to produce any measurable recruitment of β-arrestin-2”, the Ki (D1) was 5.9 nM and the “functional profile at the 5-HT1A receptor” value (5-HT1A receptor) was “partial agonist”. For the same compound, the Ki (DOR) was > 10000 nM, the “agonist activity, Ca2+ mobilization” value (D1R–D2R heteromer; agonist mode, concentrations up to 50 μM) was “no Ca^2+ mobilization was detected” and the IC50 (D1R–D2R heteromer; read-out: IC50, inhibition of dopamine-stimulated calcium mobilization, EC80 (1 μM) dopamine, n=3) was 0.0193 ± 0.0037 µM. The Ki (5-HT1D) was > 10000 nM, the Ki (5-HT3) was > 10000 nM and the Ki (D4) was 3750 nM. For the same compound, the “agonist activity, β-arrestin-2 recruitment” value (D5R [15]) was “failed to produce any measurable recruitment of β-arrestin-2” and the Ki (MOR) was > 10000 nM.
